Experimental findings from article PMC7006505, “Chemical biology tools for probing transcytosis at the blood–brain barrier” (Chemical Science, 2019) are described below.

Bridge positions count the residues as written; N and C are the ends. Square brackets hold non-standard residues; d marks the D form. Triazole bridges read from a SMILES are 1,4-linked. Ends that are not written are not given here. I, II: the chains in the order shown. * marks the point of attachment. 5FAM = O=C1OC2(c3ccc(O)cc3Oc3cc(O)ccc32)c2ccc(C(=O)*)cc21; Lys(N3) = [N-]=[N+]=NCCCC[C@H](N)C(=O)O; Pra = C#CC[C@H](N)C(=O)O

Data set [1] has as its target T1, extracellular subunit of TfR recombinant human protein, N-His Tag (Homo sapiens, UniProt P02786).
T1 construct: extracellular subunit of TfR; purchased Life Technologies
The experiment in a line: TfR binding ELISA (FAM-labelled shuttles on TfR-coated plates). The settings on record: plates coated with 1 µg/ml TfR, 1 h at room temp in PBS, anti-FAM HRP antibody (streptavidin peroxidase for Tf-biotin), absorption 450 nm, read-out: apparent binding affinity (EC50) to TfR. As to the method:
To evaluate functionality of the conjugated peptides, in vitro analyses were performed. TfR binding was assessed through an ELISA format, whereby FAM-conjugated shuttles were serially diluted and added to plates that were coated with TfR protein. FAM-labelled vehicles were detected by an anti-FAM HRP-conjugated antibody.
The procedure was performed at room temp on a shaking platform using PBS-Tween (0.05%) for the wash steps. Nickel coated clear 96-well plates (Pierce) was coated overnight with 1 µg/ml of the extracellular subunit of TfR recombinant human protein, N-His Tag (Life Technologies) in 0.5 M Carbonate buffer. The plates were washed (5 × 150 µL) and blocked for 1 h with PBS containing 1% BSA. 100 µL of the compound dilutions in PBS were transferred to the plate and incubated for 1 h at room temp, after which time the plates were washed (5 × 150 µL). A Goat anti-FAM peroxidase labelled antibody (Abcam, 1:100 000) was added to the wells and incubated for 30 min. Following 6 washes, 50 µL of TMB Substrate Solution (Sigma) was added per well and incubated for a further 30 min. After addition of 50 µL of 2 M sulphuric acid to each well , receptor complexes were detected by measuring absorption at 450 nm. The procedure for determining the binding affinity of biotin labelled Tf (Sigma) was similar except streptavidin peroxidas e (ThermoFisher Scientific) (1:20 000) was used to measure the Tf -receptor complex.
Imaging and Immunochemistry
Colocalis ation of delivery scaffolds with LAMP1 and Tf -A647 bEND.3 cells were seeded at a density of 1 x 10^4 cells/we ll in 8-well glass plates (ibidi ) coated with rat tail collagen. After 3 days at 100 % confluence, cells were washed with PBS (3 × 180 µL), and co-incubated with brain delivery scaffolds (5 µM) and Tf-A647 (50 µg/ml) at 37 °C for 2 h in FluoroBrite DMEM media (Thermofisher). Cells were washed with PBS (3 × 180 µL), then fixed with 4 % paraformaldehyde for 15 min at room temperature. […]

Another data set relates to bEnd.3/MSC co-culture. Nature of the data set: Transcytosis assay, transwell in vitro BBB model with dex-TexR correction (cPapp). Format: in vitro ADME, mouse. The note with it: apical to basolateral, fluorescence read-out; for fold increase in permeability (cPapp) relative to Tf-A647: bEnd.3/MSC co-culture on polyester transwell inserts (0.4 µm pore), 0.5 µM vehicle with 5 µM dex-TexR (3000 Da), 37 °C, DMEM without FCS after 1 h serum starvation, three inserts with and without culture, paracellular contribution subtracted; for cPapp at 4 °C: bEnd.3/MSC transwell, FAM-labelled vehicle co-incubated with dex-TexR, corrected for paracellular diffusion. An excerpt:
To study transcytosis potential of the vehicles in vitro we optimised a BBB model using a 3D-transwell format. […] This is similar to results shown by others.[16] Immunostaining for TJ protein ZO-1 in the bEnd.3 cell line confirmed its presence and trafficking towards the cell junctions (Fig. S7 ^†).
It seemed plausible that a similar sized marker (such as TexasRed labelled dextran (dex-TexR; 3000 g mol^–1)) that is incapable of AMT or RMT uptake could serve as an internal standard to quantify paracellular contribution of the vehicles. As exemplified in Fig. 4A, experiments are performed in parallel with probes (both dex-TexR and FAM-PPII vehicle or Tf-A647) fed to insets containing either the cell monolayer (PSt) or filter alone (PSf). The corresponding Papp for dex-TexR in both scenarios is first calculated and the extent in which movement is reduced by presence of the monolayer (defined here as the transport ratio (TR)) is used to determine the expected paracellular diffusion rate of the individual vehicles. We employed Tf-A647 and a similarly sized TexasRed labelled dextran (dex-TexR; 70 000 g mol^–1) as a positive control for transcytosis. […] When incubated in the presence of cells, dex-TexR was detected in the basolateral compartment indicating background paracellular flux. However, Tf-A647 was cleared at a faster rate in comparison, confirming transcytosis of the molecule.
Fig. 4 Modified workflow and results for determining the cPapp of a macromolecule, accounting for contributions made by paracellular diffusion across an in vitro barrier. […] (B–C) Clearance plots obtained by incubation of Tf-A647 or dex-TexR with filters alone (B; PSf) or with cells (C; PSt). […] Division of PSt/PSf for dextran generates the transport ratio (TR). Expected paracellular contribution of the vehicle is obtained by multiplying TR by the Papp of the compound of interest without cells. cPapp values are obtained by subtracting this value from Papp of compound with cells. Key: red = dex-TexR; blue = Tf-A647; dashed lines = filter insert only; solid lines = transwell culture (D) cPapp values for delivery vehicles screened in the transcytosis assay.
(3 × 1 mL), and trypsinisation was conducted using a solution of 0.25 % (w/v) trypsin-EDTA solution (0.5 mL, 3 min, 37 °C, 5 % CO2 incubation), unless otherwise specified. When required, a Scan Speed 1580R centrifuge (Labmode) was used to pellet cell suspensions. All tissue culture work was performed in sterilised Corning well plates, and cell based assays used DMEM media (ThermoFisher, #31053028) without FCS and phenol red, unless otherwise specified. bEND.3 cells were a gift from Rachael Brown (Kings College London), while MSC cells were a gift from the Battaglia group (University College London).
Cells were maintained in high glucose Dulbecco’s Modified Eagle’s Medium (DMEM) (ATCC #30-2002) supplemented with 10 % FCS. Cells were sub-cultured routinely using trypsin solution once 100 % confluence was achieved. For uptake and transcytosis studies, cells under passage number 30 were used. After this time, these cells may begin to lose their barr ier functionality, as identified from an extensive study performed by Brown et al.1 Mesenchymal stem cells (MSC)
MSC, as surrogates for pericytes, were maintained in DMEM/F12 medium containing GlutaMAX and L-glutamine (2 mM) (ThermoFisher, #10565-018), supplemented with 10 % FCS and 5 μg/mL Gentamicin (SIGMA, G1397). Cultures were sub -cultured routinely using trypsin solution once 70 -80 % confluence was achieved.
For all transcytosis assays, polyester filter inserts (Corning, #3460; 0.4 µm pore, 12 mm diameter, 10 µm thick) were used in 12-well cell culture plates. Optimum media volumes were calculated to be 950 µL and 475 µL for apical and basolateral chambers respectively. Both chambers were coated with rat tail collagen (5 µg/cm2) for 2 h at room temperature prior to use. bEND.3 cells were seeded at a density of 2 × 10^4 cells/well onto insets, and grown to […]

T1 sequence (P02786 89-760 limits assumed): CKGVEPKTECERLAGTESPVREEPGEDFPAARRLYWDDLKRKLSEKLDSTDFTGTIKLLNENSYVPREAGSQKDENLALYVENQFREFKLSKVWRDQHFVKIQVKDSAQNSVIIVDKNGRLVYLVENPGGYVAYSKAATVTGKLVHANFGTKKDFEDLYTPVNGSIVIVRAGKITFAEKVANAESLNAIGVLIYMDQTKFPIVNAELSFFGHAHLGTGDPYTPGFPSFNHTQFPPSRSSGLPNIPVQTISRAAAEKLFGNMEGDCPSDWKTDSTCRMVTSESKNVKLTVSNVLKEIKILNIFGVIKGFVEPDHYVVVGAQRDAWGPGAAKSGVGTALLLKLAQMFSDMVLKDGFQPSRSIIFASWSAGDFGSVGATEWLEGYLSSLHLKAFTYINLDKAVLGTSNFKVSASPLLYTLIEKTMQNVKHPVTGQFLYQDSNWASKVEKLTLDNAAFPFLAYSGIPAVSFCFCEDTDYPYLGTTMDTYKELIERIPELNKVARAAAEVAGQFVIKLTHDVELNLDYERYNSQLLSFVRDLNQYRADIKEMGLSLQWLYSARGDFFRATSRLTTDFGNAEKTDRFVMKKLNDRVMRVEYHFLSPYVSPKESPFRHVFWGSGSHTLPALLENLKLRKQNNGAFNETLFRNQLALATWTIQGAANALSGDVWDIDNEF

In the case of `CC[C@H](C)[C@H](NC(=O)[C@H](C)NC(=O)[C@H](Cc1c[nH]cn1)NC(=O)[C@@H](N)CCCCn1cc(C[C@H](NC(=O)[C@H](CCCNC(=N)N)NC(=O)[C@@H](NC(=O)[C@@H]2CCCN2C(=O)[C@@H]2CCCN2C(=O)[C@@H]2CCCN2C(=O)[C@H](CC(C)C)NC(=O)[C@H](CCCNC(=N)N)NC(=O)[C@@H](NC(=O)[C@@H]2CCCN2C(=O)[C@@H]2CCCN2C(=O)[C@@H]2CCCN2C(=O)[C@H](Cc2cn(CCCC[C@H](N)C(=O)N[C@@H](Cc3c[nH]cn3)C(=O)N[C@@H](C)C(=O)N[C@H](C(=O)N[C@@H](Cc3ccc(O)cc3)C(=O)N3CCC[C@H]3C(=O)N[C@@H](CCCNC(=N)N)C(=O)N[C@@H](Cc3c[nH]cn3)C(N)=O)[C@@H](C)CC)nn2)NC(=O)[C@H](CCCNC(=N)N)NC(=O)[C@@H](NC(=O)c2ccc3c(c2)C(=O)OC32c3ccc(O)cc3Oc3cc(O)ccc32)C(C)C)C(C)C)C(C)C)C(=O)N2CCC[C@H]2C(=O)N2CCC[C@H]2C(=O)N2CCC[C@H]2C(N)=O)nn1)C(=O)N[C@@H](Cc1ccc(O)cc1)C(=O)N1CCC[C@H]1C(=O)N[C@@H](CCCNC(=N)N)C(=O)N[C@@H](Cc1c[nH]cn1)C(N)=O` [PPII(L3X;L15X)TfRL2], the EC50 – broadly, the concentration at which the effect is half-maximal – in data set [1] came to 11.8 ± 1.11 nM.

Turning to `CC[C@H](C)[C@H](NC(=O)[C@H](C)NC(=O)[C@H](Cc1c[nH]cn1)NC(=O)[C@@H](N)CCCCn1cc(C[C@H](NC(=O)[C@@H]2CCCN2C(=O)[C@@H]2CCCN2C(=O)[C@@H]2CCCN2C(=O)[C@H](CC(C)C)NC(=O)[C@H](CCCNC(=N)N)NC(=O)[C@@H](NC(=O)[C@@H]2CCCN2C(=O)[C@@H]2CCCN2C(=O)[C@@H]2CCCN2C(=O)[C@H](Cc2cn(CCCC[C@H](N)C(=O)N[C@@H](Cc3c[nH]cn3)C(=O)N[C@@H](C)C(=O)N[C@H](C(=O)N[C@@H](Cc3ccc(O)cc3)C(=O)N3CCC[C@H]3C(=O)N[C@@H](CCCNC(=N)N)C(=O)N[C@@H](Cc3c[nH]cn3)C(N)=O)[C@@H](C)CC)nn2)NC(=O)[C@H](CCCNC(=N)N)NC(=O)[C@@H](NC(=O)c2ccc3c(c2)C(=O)OC32c3ccc(O)cc3Oc3cc(O)ccc32)C(C)C)C(C)C)C(=O)N[C@@H](CCCNC(=N)N)C(=O)N[C@@H](CC(C)C)C(=O)N2CCC[C@H]2C(=O)N2CCC[C@H]2C(=O)N2CCC[C@H]2C(N)=O)nn1)C(=O)N[C@@H](Cc1ccc(O)cc1)C(=O)N1CCC[C@H]1C(=O)N[C@@H](CCCNC(=N)N)C(=O)N[C@@H](Cc1c[nH]cn1)C(N)=O` [PPII(L3X;V13X)TfRL2], the EC50 in data set [1] was 12.7 ± 1.37 nM. `CC(C)C[C@H](NC(=O)[C@H](CCCNC(=N)N)NC(=O)[C@@H](NC(=O)[C@@H]1CCCN1C(=O)[C@@H]1CCCN1C(=O)[C@@H]1CCCN1C(=O)[C@H](CC(C)C)NC(=O)[C@H](Cc1cn(CCCC[C@H](N)C(=O)N[C@H](C(=O)N[C@@H](Cc2ccccc2)C(=O)N[C@@H](Cc2ccccc2)C(=O)N[C@@H](Cc2ccc(O)cc2)C(=O)NCC(=O)NCC(=O)N[C@@H](CO)C(=O)N[C@@H](CCCNC(=N)N)C(=O)NCC(=O)N[C@@H](CCCCN)C(=O)N[C@@H](CCCNC(=N)N)C(=O)N[C@@H](CC(N)=O)C(=O)N[C@@H](CC(N)=O)C(=O)N[C@@H](Cc2ccccc2)C(=O)N[C@@H](CCCCN)C(=O)N[C@H](C(=O)N[C@@H](CCC(=O)O)C(=O)N[C@@H](CCC(=O)O)C(=O)N[C@@H](Cc2ccc(O)cc2)C(N)=O)[C@@H](C)O)[C@@H](C)O)nn1)NC(=O)[C@@H](NC(=O)[C@@H]1CCCN1C(=O)[C@@H]1CCCN1C(=O)[C@@H]1CCCN1C(=O)[C@H](CC(C)C)NC(=O)[C@H](CCCNC(=N)N)NC(=O)[C@@H](NC(=O)c1ccc2c(c1)C(=O)OC21c2ccc(O)cc2Oc2cc(O)ccc21)C(C)C)C(C)C)C(C)C)C(=O)N1CCC[C@H]1C(=O)N1CCC[C@H]1C(=O)N1CCC[C@H]1C(N)=O` [PPII(R8X)APep2]: in the data set with bEnd.3/MSC co-culture, the “fold increase in permeability (cPapp) relative to Tf-A647” value is reported as 4.9 fold and the “cPapp at 4 °C” value is recorded as -0.058 cm/min x 10^-5. For `CC[C@H](C)[C@H](NC(=O)[C@H](C)NC(=O)[C@H](Cc1c[nH]cn1)NC(=O)[C@@H](N)CCCCn1cc(C[C@H](NC(=O)[C@@H](NC(=O)[C@@H]2CCCN2C(=O)[C@@H]2CCCN2C(=O)[C@@H]2CCCN2C(=O)[C@H](CC(C)C)NC(=O)[C@H](CCCNC(=N)N)NC(=O)[C@@H](NC(=O)c2ccc3c(c2)C(=O)OC32c3ccc(O)cc3Oc3cc(O)ccc32)C(C)C)C(C)C)C(=O)N[C@@H](CC(C)C)C(=O)N2CCC[C@H]2C(=O)N2CCC[C@H]2C(=O)N2CCC[C@H]2C(=O)N[C@H](C(=O)N[C@@H](CCCNC(=N)N)C(=O)N[C@@H](CC(C)C)C(=O)N2CCC[C@H]2C(=O)N2CCC[C@H]2C(=O)N2CCC[C@H]2C(N)=O)C(C)C)nn1)C(=O)N[C@@H](Cc1ccc(O)cc1)C(=O)N1CCC[C@H]1C(=O)N[C@@H](CCCNC(=N)N)C(=O)N[C@@H](Cc1c[nH]cn1)C(N)=O` [PPII(R8X)TfRL2], in that order: 1.4 fold and -0.085 cm/min x 10^-5. For “I: 5FAM-VR[Pra]PPPVRLPPPVR[Pra]PPP-NH2 / II: [Lys(N3)]THRPPMWSPVWP-NH2 / III: [Lys(N3)]THRPPMWSPVWP-NH2 (triazole I:3-III:1, I:15-II:1) [PPII(L3X;L15X)TfRL1]”, in that order: 3.0 fold and -0.079 cm/min x 10^-5. In the case of “I: 5FAM-VR[Pra]PPPVRLPPP[Pra]RLPPP-NH2 / II: [Lys(N3)]THRPPMWSPVWP-NH2 / III: [Lys(N3)]THRPPMWSPVWP-NH2 (triazole I:3-III:1, I:13-II:1) [PPII(L3X;V13X)TfRL1]”, the “fold increase in permeability (cPapp) relative to Tf-A647” value in the data set on bEnd.3/MSC co-culture came to 3.5 fold.

As to “Tf-A647: human derived AlexaFluor 647-conjugated transferrin [reference compound]”, the “cPapp at 4 °C” value with bEnd.3/MSC co-culture is 0.09 cm/min x 10^-5.
